As usually defined, the viability is a read-out of living cells in per cent, often relative to untreated cells.

A short description of the data set: in vitro. As to conditions: human, hela cells, % viability.
For `CS(=O)(=O)Nc1ncc(-c2ccco2)cc1C(=O)Nc1ccon1` [CBK076512], the viability at 28.5 h, 10 µM came to 89.6%.
Then `CCN1CCCC1CNC(=O)c1cc(Br)cnc1N(C)C(C)=O` (stereo not shown) [CBK076524], with 85.2%; and `CC(=O)N(C)c1ncc(Br)cc1C(=O)N(C)C` [CBK076533], with 97.1%.
As to `CS(=O)(=O)Nc1ncc(Br)cc1C(=O)NCc1ccc(F)cc1` [CBK076538], the viability at 28.5 h, 10 µM came to 89.6%.
Then `COc1ccc(-c2cnc(NS(C)(=O)=O)c(C(=O)NCc3ccco3)c2)cc1` [CBK076539], with 94.9%; and `CC(=O)N(C)c1ncc(Br)cc1C(=O)NCCc1ccccc1` [CBK076543], with 93.8%.
The result for `COCCNc1nc(-c2ccccc2CO)ccc1C(=O)NCCNC(C)=O` [CBK076548] reads 101%.
Then `O=C(NCC(F)(F)F)c1ccc(-c2ccccc2)nc1NCc1cccnc1` [CBK076551], with 95%; and `CC(=O)N(C)c1ncc(Br)cc1C(=O)NCC1COc2ccccc2O1` (stereo not shown) [CBK076558], with 91.7%.
For the compound `COCCNC(=O)c1ccc(-c2ccccc2CO)nc1N1CCOCC1` [CBK076559], the viability at 28.5 h, 10 µM was found to be 97.6%.
The result for `C=CCNC(=O)c1ccc(-c2cccc(N(C)C)c2)nc1NCc1cccnc1` [CBK076566] reads 91.3%.
Then `CS(=O)(=O)Nc1ncc(-c2ccco2)cc1C(=O)NCCc1c[nH]c2ccccc12` [CBK076569], with 90.5%; and `CC(=O)N(C)c1nc(-c2cccc(N(C)C)c2)ccc1C(=O)NCCc1ccc(S(N)(=O)=O)cc1` [CBK076578], with 88.8%.
For the compound `CC(=O)N(C)c1nc(-c2cccc(N(C)C)c2)ccc1C(=O)NC1CCS(=O)(=O)C1` (stereo not shown) [CBK076590], the viability at 28.5 h, 10 µM was determined as 103%.
Turning to `CN(C)CCN(C)C(=O)c1ccc(-c2ccccc2CO)nc1N(C)C` [CBK076591], the viability at 28.5 h, 10 µM is 95%.
For `CC(=O)Nc1cccc(-c2cnc(N(C)S(C)(=O)=O)c(C(=O)NCc3ccc4c(c3)CCO4)c2)c1` [CBK076609], the viability at 28.5 h, 10 µM is 99.7%.
The result for `CC(=O)c1ccccc1-c1ccc(C(=O)N2CCN(C)CC2)c(NCC2CC2)n1` [CBK076613] reads 92.8%.
As to `CC(=O)c1ccc(-c2ccc(C(=O)NCCc3ccc(S(N)(=O)=O)cc3)c(N(C)C(C)=O)n2)s1` [CBK076621], the viability at 28.5 h, 10 µM was found to be 91.9%.
The result for `CC(=O)c1ccc(-c2ccc(C(=O)NCC3COc4ccccc4O3)c(N(C)C(C)=O)n2)s1` (stereo not shown) [CBK076637] reads 114%; that for `CCC1CCCCN1C(=O)c1ccc(C(C)(C)C)cc1` (stereo not shown) [CBK076644], 103%; that for `CCC1CCCCN1C(=O)c1nc2ccccc2s1` (stereo not shown) [CBK076645], 101%.
The result for `COc1ccc([C@@]23CC[C@@H](NC(=O)c4ccc5c(c4)OC(F)(F)O5)C[C@@H]2N(C)CC3)cc1OC` [CBK076658T] reads 108%.
In the case of `CCSc1nnc(-c2cccnc2)n1Cc1ccccc1` [CBK076664], the viability at 28.5 h, 10 µM was determined as 84.4%.
In the case of `CSc1nnc(-c2ccccc2O)n1CCc1ccccc1` [CBK076668], the viability at 28.5 h, 10 µM came out at 96.8%.
As to `COc1ccc(C(NC(=O)[C@H]2CCCN2C(=O)COc2ccccc2)c2ccccc2C)cn1` (stereo partly shown) [CBK076682], the viability at 28.5 h, 10 µM was found to be 96.1%.
For `CCC1CCCCN1C(=O)c1cncc(Br)c1` (stereo not shown) [CBK076699], the viability at 28.5 h, 10 µM was determined as 107%.
Then `CCSc1nnc(-c2ccc([N+](=O)[O-])cc2)n1CC(C)C` [CBK076724T], with 108%.
Take `COc1ccc2[nH]c3c(c2c1)CCN(C(=O)CNCc1ccc(OC)c(OC)c1)C31CCN(CCOc2ccccc2)C1` (stereo not shown) [CBK076736T]: the viability at 28.5 h, 10 µM worked out at 75%.
As for `CCC1CCCCN1C(=O)c1cccc(C)n1` (stereo not shown) [CBK076750], the viability at 28.5 h, 10 µM is 92.4%.
On to `CCC1(CC)C(=O)N=C(C(C)(C)C)NC1=O` [CBK076759], for which the viability at 28.5 h, 10 µM worked out at 88.8%.
As for `CSc1nnc(-c2cccc(C)c2)n1CC(C)C` [CBK076764T], the viability at 28.5 h, 10 µM was 89.1%.

For the origin of these results see publication PMC12040169 (PLOS Biology, 2025).
